Assay results: patent US8999983B2, “Modulators of Hec1 activity and methods therefor” (Taivex Therapeutics Corporation, priority 2011, dated 2015)

Assays:
[1] = Pharmacokinetics of salt forms, single oral dose; format: in vivo, CD-1 mice; conditions: male, CD-1, mouse, plasma
Description: (§1) Pharmacokinetics of Hec1 Inhibitor Salts: Pharmacokinetic comparison of different salt forms (HCl, tosylate, mesylate salt) was studied for the compounds as shown in Table 3 below:
(§2) Formulations for both PO (oral) and IV (intravenous) doses were prepared in saline with 2% Tween 80 and 10% DMSO. Concentrations were adjusted based on the molecular weights of the freebase and salts.
PO studies: A single dose of 10 mg/kg of each of the three test compounds was orally administered to 21 healthy male CD-1 mice (weight ranged from 18-27 g). The dosing volume was […]. Animals were fasted approximately 16 hours prior to dosing until 4 hours post dosing. Water was available to all animals during the experiment period.
(§3) Three mice were bled (ca. 1 mL) at each timepoint (0.5, 1, 1.5, 2, 4, 6, and 24 hours post-dose for PO study and 0.083, 0.5, 1, 2, 4, 6, and 24 hours post-dose for IV study) by cardiac puncture and blood was collected into K3EDTA blood collection tubes. Blood samples were centrifuged immediately at 4° C. at 3000 rpm for 10 min. Plasma samples were transferred and stored at −20° C. prior to analysis.
(§4) The plasma concentrations of 110095 (compound 27 of Table 1, the free base of all three test articles) were determined by LC MS/MS in the positive MRM mode; all doses were normalized to the freebase (110095) concentration. The mean plasma concentration from each time point (n=3) were used to calculate the PK parameters using a non-compartmental model. Pharmacokinetic parameters (Cmax, Tmax, t½, AUC, etc.) were calculated using WinNonlin Software (version 5.3, Pharsight, Sunnyvale Calif. 94086 USA), the results and absolute bioavailability results are presented in Table 6. Table 4 lists mean concentrations (ng/mL) of 110095 in mouse plasma following a single oral dose of 10 mg/kg of 110095-HCl-1007, 110095-03-03 or 110095-02-02 to CD-1 mice, and Table 5 lists mean concentrations (ng/mL) of 110095 in mouse plasma following a single IV dose of 1 mg/kg of 110095-HCl-1007, 110095-03-03 or 110095-02-02 to CD-1 mice. Table 6 lists PK parameters and absolute bioavailability result of 110095-HCl-1007, 110095-03-03 or 110095-02-02 in CD-1 mice.

[2] = Pharmacokinetics of salt forms, single IV dose; format: in vivo, CD-1 mice; conditions: male, CD-1, mouse
Description: as §1, §2
IV studies: A single dose of 1 mg/kg of each of the three test articles was IV administered to 21 healthy male CD-1 mice (weight ranged from 18-27 g). The dosing volume was 5 mL/kg. Food and water were available to all animals during the experiment period.
as §3, §4

[3] = test system: Hela; test: Antiproliferation assay (MTS), HeLa cells; format: cell-based; conditions: Homo sapiens, 96 h, Table 1, read-out: Antiproliferative IC50 Hela
Description: (§5) Cells were grown at 37° C. in a humidified atmosphere consisting of 5% CO2 and 95% air.
(§6) Antiproliferation Assays: Cells were plated in a 96-well culture plate with 2000-8000 cells per well. The compounds were prepared in DMSO and used to treat cells in a final concentration of less than 1% DMSO. Compound treatment started after overnight incubation of cells (T0). […] Compound was added to the plate in triplicate wells, and the plates were then incubated for 96 hours. DMSO (compound diluent) was also included and added to the plate in control wells. Cell viability was then determined by MTS assay using the CellTiter 96® aqueous non-radioactive cell proliferation assay system (Promega, Madison, Wis. 53711 USA). A plate reader (Vmax, Molecular Devices, Sunnyvale Calif. 94089 USA) was used to determine the optical densities, and the results were used to deduce concentration-response curves. […] The results were analyzed using linear regression software (GraphPad Prism 5; GraphPad Software Inc. La Jolla Calif. 92037 USA).

[4] = test system: K562; test: Antiproliferation assay (MTS), K562 cells; format: cell-based; conditions: Homo sapiens, K562, 96 h, Table 1, read-out: Antiproliferative IC50 K562
Description: as §5, §6

[5] = test system: caspase-3, PARP, Mcl-1 and XIAP; test: Immunoblot of apoptotic pathway proteins; format: cell-based; conditions: 1 μM, 24 or 48 hours
Description: Immunoblot Analysis: For immunoblotting experiments, cells were plated in a 6-well culture plate and cultured overnight. Cells were incubated with the test compounds for the indicated time and whole cell lysate was harvested by adding 1×SDS-PAGE Sample Buffer (62.5 mM Tris-HCl (pH 6.8 at 25° C.), 2% w/v SDS, 10% glycerol, 50 mM DTT, and 0.01% w/v bromophenol blue or phenol red). Proteins were separated by SDS-PAGE electrophoresis and transferred to PVDF membrane. Protein expression was immunoblotted using various primary antibodies and detected using Immobilon Western Chemiluminescent HRP Substrate (Millipore, Billerica Mass. 01821 USA). Antibodies used include anti-Cleaved Caspase3, (Rabbit, Cell Signaling Technology, Danvers Mass. 01923 USA); anti-PARP (Rabbit, Cell Signaling Technology, Danvers Mass. 01923 USA); anti-MCL-1 (mouse, BD Biosciences, San Jose Calif. 95131 USA); anti-XIAP (rabbit, Cell Signaling Technology, Danvers Mass. 01923 USA); anti-Bcl-2 (mouse, Santa Cruz Biotechnology, Santa Cruz Calif. 95060); anti-Cyclin BI (mouse, BD Biosciences, San Jose Calif. 95131 USA); anti-Cyclin D1 (mouse, Santa Cruz Biotechnology, Santa Cruz Calif. 95060); Anti-Nek2 (mouse, BD Biosciences, San Jose Calif. 95131 USA); Anti-HEC1, (rabbit, GeneTex, Inc., Irvine Calif. 92606 USA); and anti-actin (mouse, Millipore, Billerica Mass. 01821 USA).
100 nM Taxol was used as a positive control drug for apoptosis.

[6] = test system: MDA-MB-231; test: Antiproliferation assay (MTS), MDA-MB-231 cells; format: cell-based; conditions: Homo sapiens, MDA-MB-231, 96 h, read-out: Antiproliferative IC50 MDA-MB-231, Table 1
Description: as §5, §6

[7] = test system: MDA-MB-468; test: Antiproliferation assay (MTS), MDA-MB-468 cells; format: cell-based; conditions: Homo sapiens, MDA-MB-468, 96 h, Table 1, read-out: Antiproliferative IC50 MDA-MB-468
Description: as §5, §6

[8] = target: T1, hERG potassium channels (Homo sapiens, UniProt Q12809); test: [3H]Astemizole competitive binding assay, hERG; conditions: [3H]-astemizole displacement, hERG membrane protein
T1 construct: purchased PerkinElmer
Description: Here, [3H] Astemizole competitive binding assays were performed to determine the ability of compounds to displace the known radioligand [3H]-astemizole from the hERG potassium channels, following standard protocol with minor modifications. In brief, assays were performed in 200 μl of binding buffer (50 mM HEPES, pH 7.4, 60 mM KCl, and 0.1% BSA) containing 1.5 nM of [3H]astemizole, 3 μg/well of hERG membrane protein (PerkinElmer), and TAI-1 (in 1% DMSO final concentration) at 27° C. for 60 min. Nonspecific binding (NSB) was determined in the presence of 10 μM astemizole. […] Binding was terminated by rapid filtration onto polyethyleneimine-presoaked, buffer-washed UniFilter-96, GF/C (Perkin Elmer) using a vacuum manifold (Porvair Sciences). Captured radiolabel signal was detected using TopCount NXT (Perkin Elmer). […] All results are derived from two independent experiments.

[9] = test system: Caco-2 cell monolayers; test: Caco-2 cell permeability; format: in vitro ADME; conditions: 10 μM, 2 hour, both directions
Description: Here, Caco-2 cell line (cat. HTB-37TM) was purchased from the ATCC. Cells were cultivated in T-75 flasks in a cell culture incubator set at 37° C., 5% CO2, 95% relative humidity. Cells were allowed to grow to reach 80-90% confluence before seeding. […] The cells were grown in culture medium consisting of Dulbecco's modified Eagle's medium supplemented with 10% fetal bovine serum, 100 U/mL penicillin and 100 μg/mL streptomycin. The culture medium was replaced every 2 days and the cells were maintained at 37° C., 95% relative humidity and 5% CO2.
For a quality integrity control of the monolayers of seeded cells, the Lucifer yellow (LY) transport experiment was performed to evaluate monolayer integrity. As for a quality control of each filter, the transepithelial electrical resistance (TEER) was measured before the start of and at the end of transport experiments. Physiologically and morphologically well developed Caco-2 cell monolayers with TEER values greater than 400 Ωcm^2 were used for the studies.
The solution volumes in apical and basolateral chambers were set to 0.4 and 0.6 ml respectively. Samples were taken from both the apical and basolateral compartment at the end of the 2 hour incubation at 37° C. […] The excitation and emission wavelengths were 490 nm and 530 nm, respectively.

T1 sequence (Q12809 whole entry): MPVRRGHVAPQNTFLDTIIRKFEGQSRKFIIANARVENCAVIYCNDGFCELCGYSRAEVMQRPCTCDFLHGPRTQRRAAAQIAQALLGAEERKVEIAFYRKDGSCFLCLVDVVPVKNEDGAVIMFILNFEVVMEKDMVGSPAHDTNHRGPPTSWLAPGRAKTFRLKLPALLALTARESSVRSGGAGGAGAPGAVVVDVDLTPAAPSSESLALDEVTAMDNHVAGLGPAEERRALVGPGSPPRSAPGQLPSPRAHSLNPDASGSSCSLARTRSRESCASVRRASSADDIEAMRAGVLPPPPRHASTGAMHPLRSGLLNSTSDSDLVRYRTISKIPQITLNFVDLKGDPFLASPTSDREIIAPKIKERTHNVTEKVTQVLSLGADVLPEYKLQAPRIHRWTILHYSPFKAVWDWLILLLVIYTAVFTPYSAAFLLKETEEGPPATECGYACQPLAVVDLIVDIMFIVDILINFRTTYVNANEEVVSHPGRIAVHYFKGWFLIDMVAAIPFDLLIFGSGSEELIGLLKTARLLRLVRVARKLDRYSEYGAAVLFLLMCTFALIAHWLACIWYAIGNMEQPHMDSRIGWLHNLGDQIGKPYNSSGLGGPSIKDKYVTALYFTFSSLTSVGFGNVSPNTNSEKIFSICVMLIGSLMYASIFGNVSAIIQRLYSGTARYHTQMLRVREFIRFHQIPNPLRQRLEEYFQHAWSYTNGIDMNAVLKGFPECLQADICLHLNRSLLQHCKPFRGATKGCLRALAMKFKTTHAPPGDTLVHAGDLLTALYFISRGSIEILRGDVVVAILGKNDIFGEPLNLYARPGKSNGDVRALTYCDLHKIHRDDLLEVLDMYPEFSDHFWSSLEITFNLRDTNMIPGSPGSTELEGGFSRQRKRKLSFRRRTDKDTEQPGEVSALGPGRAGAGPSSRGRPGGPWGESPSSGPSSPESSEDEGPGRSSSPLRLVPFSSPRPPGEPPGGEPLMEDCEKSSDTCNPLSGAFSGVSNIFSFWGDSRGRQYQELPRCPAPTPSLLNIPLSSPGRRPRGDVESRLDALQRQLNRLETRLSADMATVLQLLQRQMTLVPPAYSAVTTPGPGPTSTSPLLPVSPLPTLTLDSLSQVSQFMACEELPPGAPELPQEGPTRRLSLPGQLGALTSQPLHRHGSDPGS

Molecule `COCCOc1cnc(Sc2cc(C)c(-c3csc(NC(=O)c4ccncc4)n3)c(C)c2)cn1.Cl` [110095-HCl-1007] has an AUC(0-inf) ([1]; PO 10.0 mg/kg) of 25100 ng·h/mL, an AUC(0-t) ([1]; PO 10.0 mg/kg) of 25100 ng·h/mL and a Cmax ([1]; PO 10.0 mg/kg) of 4060 ng/mL. The MRT ([1]; PO 10.0 mg/kg) was 4.11 h, the Tmax ([1]; PO 10.0 mg/kg) was 1 h and the half-life ([1]; PO 10.0 mg/kg) was 2.81 h. It also gave a bioavailability ([1]; PO 10.0 mg/kg vs IV 1.00 mg/kg, read-out: F % (absolute bioavailability)) of 84%, a concentration at 0.5 h ([1]; PO 10 mg/kg, 0.5 h, read-out: mean concentration of 110095 in mouse plasma) of 1800 ng/mL and a concentration at 1 h ([1]; PO 10 mg/kg, 1 h, read-out: mean concentration of 110095 in mouse plasma) of 4060 ng/mL. For the same molecule, the concentration at […] ([1]; PO 10 mg/kg, 1.5 h, read-out: mean concentration of 110095 in mouse plasma) was 3660 ng/mL, the concentration at 2 h ([1]; PO 10 mg/kg, 2 h, read-out: mean concentration of 110095 in mouse plasma) was 3560 ng/mL and the concentration at 4 h ([1]; PO 10 mg/kg, 4 h, read-out: mean concentration of 110095 in mouse plasma) was 2170 ng/mL. It also gave a concentration at 6 h ([1]; PO 10 mg/kg, 6 h, read-out: mean concentration of 110095 in mouse plasma) of 1140 ng/mL, a concentration at 24 h ([1]; PO 10 mg/kg, 24 h, read-out: mean concentration of 110095 in mouse plasma) of 14.8 ng/mL and an AUC(0-inf) ([2]; in vivo, iv, 1 mg/kg) of 3000 ng·h/mL. For the same molecule, the AUC(0-t) ([2]; in vivo, iv, 1 mg/kg) was 2980 ng·h/mL, the MRT ([2]; in vivo, iv, 1 mg/kg) was 3.3 h and the half-life ([2]; in vivo, iv, 1 mg/kg) was 3.61 h. For the same molecule, the concentration at […] ([2]; plasma, IV 1 mg/kg, 0.083 h, read-out: mean concentration of 110095 in mouse plasma) was 870 ng/mL, the concentration at 0.5 h ([2]; plasma, IV 1 mg/kg, 0.5 h, read-out: mean concentration of 110095 in mouse plasma) was 684 ng/mL and the concentration at 1 h ([2]; plasma, IV 1 mg/kg, 1 h, read-out: mean concentration of 110095 in mouse plasma) was 549 ng/mL. For the same molecule, the concentration at 2 h ([2]; plasma, IV 1 mg/kg, 2 h, read-out: mean concentration of 110095 in mouse plasma) was 422 ng/mL, the concentration at 4 h ([2]; plasma, IV 1 mg/kg, 4 h, read-out: mean concentration of 110095 in mouse plasma) was 202 ng/mL and the concentration at 6 h ([2]; plasma, IV 1 mg/kg, 6 h, read-out: mean concentration of 110095 in mouse plasma) was 93.2 ng/mL. For the same molecule, the concentration at 24 h ([2]; plasma, IV 1 mg/kg, 24 h, read-out: mean concentration of 110095 in mouse plasma) was 3.68 ng/mL.

With `Cc1cc(Sc2cnccn2)cc(C)c1-c1csc(NC(=O)c2ccnc(F)c2)n1` [Compound 19, N-{4-(2,6-Dimethyl-4-(pyrazin-2-ylthio)phenyl)thiazol-2-yl}-2-fluoroisonicotinamide] the IC50 [3] was 35.6 nM, the IC50 [4] was 37.6 nM and the “levels of apoptotic (caspase-3, PARP) and anti-apoptotic (Mcl-1, XIAP) proteins” value [5] was “cleavage of the apoptotic proteins accompanied by down-regulation of the anti-apoptotic proteins”. It also gave an IC50 [6] of 32 nM and an IC50 [7] of 60.1 nM.

In the case of `COCCOc1ccc(Oc2cc(C)c(-c3csc(NC(=O)c4ccnc(F)c4)n3)c(C)c2)cc1` [Compound 20, 2-Fluoro-N-(4-{4-(4-(2-methoxyethoxy)phenoxy)-2,6-dimethylphenyl}thiazol-2-yl)isonicotinamide], the IC50 [3] is reported as 10.9 nM, the IC50 [4] is reported as 14.1 nM and the “levels of apoptotic (caspase-3, PARP) and anti-apoptotic (Mcl-1, XIAP) proteins” value [5] is reported as “cleavage of the apoptotic proteins accompanied by down-regulation of the anti-apoptotic proteins”. The IC50 [6] was 7.5 nM and the IC50 [7] was 10.4 nM.

For `COCCOc1cnc(Oc2cc(C)c(-c3csc(NC(=O)c4ccncc4)n3)c(C)c2)cn1` [Compound 22, N-(4-{4-(5-(2-Methoxyethoxy)pyrazin-2-yloxy)-2,6-dimethylphenyl}thiazol-2-yl)isonicotinamide], the IC50 [8] was > 10000 nM and the Caco-2 permeability [9] was “moderate Caco-2 permeability”.

For `COc1cnc(Sc2cc(C)c(-c3csc(NC(=O)c4ccncc4)n3)c(C)c2)cn1` [Compound 25, N-{4-(4-(5-Methoxypyrazin-2-ylthio)-2,6-dimethylphenyl)thiazol-2-yl}isonicotinamide], the IC50 [8] was > 10000 nM.
